Assays:
Assay type in all cases: in vivo
ANGPTL7 WT mice = experiment: DEX-Ac-induced ocular hypertension in ANGPTL7 WT mice (IOP measurement); conditions: weekly periocular CF injections of DEX-Ac in both eyes, versus vehicle-treated, week 1 to 6
Text: (§1) IOP measurements of DEX-Ac-treated (n=18) versus vehicle-treated (n=6) mice show IOP elevation from week 1 to 6; **p<0.01, ***p<0.001, ****p<0.0001.

ANGPTL7 = ANGPTL7 siRNA in DEX-Ac-induced ocular hypertension (steroid-induced IOP) in wild-type mice; conditions: WT mice; weekly periocular CF injections of DEX-Ac to both eyes; compared with vehicle-treated mice; starting 6-days post-injection
Text: dsRNA were further assessed for their ability to reduce steroid induced IOP in vivo in wild-type mice. […] Mice were divided into following groups as shown in FIG. 4: a) Vehicle (n=4), b) Vehicle+PBS (n=6), c) DEX-Ac (n=12), d) DEX-Ac+siRNA #3 (n=14), and e) DEX-Ac+siRNA #5 (n=14). […] At Day 22, siRNA targeting ANGPTL7 (#3 and #5) were intravitreally injected into groups: d and e (DEX-Ac+siRNA #3 and DEX-Ac+siRNA #5) and IOP measurements continued to be recorded.

ANGPTL7 KO mice = experiment: DEX-Ac-induced ocular hypertension in ANGPTL7 KO mice (IOP measurement); conditions: weekly periocular CF injections of DEX-Ac in both eyes, versus vehicle-treated, week 1 to week 6
Text: as §1

IOP elevation (ANGPTL7 WT mice): significantly elevated IOP
IOP elevation (ANGPTL7): rapid and significantly higher
IOP elevation (ANGPTL7 KO mice): did not elevate IOP
Compound: CC(=O)OCC(=O)[C@@]1(O)[C@H](C)C[C@H]2[C@@H]3CCC4=CC(=O)C=C[C@]4(C)[C@@]3(F)[C@@H](O)C[C@@]21C [DEX-Ac, dexamethasone-21-acetate]
